Test results from ChEMBL document CHEMBL5126581, “Chlorinated benzothiadiazines inhibit angiogenesis through suppression of VEGFR2 phosphorylation” (Bioorg Med Chem, 2022).

Experiments:
[1] = Cytotoxicity against HEK293 cells assessed as inhibition of cell growth incubated for 72 hrs by MTS assay; type: toxicity, cell-based; settings: human
[2] = Cytotoxicity against HEK293 cells assessed as inhibition of cell growth at 50 uM incubated for 72 hrs by MTS assay relative to control; type: toxicity, cell-based; settings: human
MDA-MB-468 = test: Cytotoxicity against human MDA-MB-468 cells assessed as inhibition of cell growth incubated for 72 hrs by MTS assay; type: functional, cell-based; settings: MDA-MB-468, 72 h

Work on `CNC(=O)c1cc(Oc2ccc(NC(=O)Nc3ccc(Cl)c(C(F)(F)F)c3)cc2)ccn1` [SORAFENIB] yielded an IC50 at 72 h [1] of 2.95 µM, an inhibition at 72 h, 50 µM [2] of 99% and an IC50 (MDA-MB-468) of 7.31 µM.
